Values joined by “and” are separate entries in the source; they are usually repeats but may differ in a detail not shown here. Identical values can stand only once. Like-named read-outs stand apart in the source and are kept apart here.
How the values were obtained:
HIF-1α = HIF-1α protein immunoblot in hypoxic cells; type: cell-based, human; conditions: A375; for effect on adenosine-induced HIF-1α protein expression / effect on Cl-IB-MECA-induced increase of HIF-1α protein expression: hypoxia 4 hours; for effect on adenosine-induced HIF-1α protein expression: adenosine 100 μM, antagonist 100 nM; for effect on Cl-IB-MECA-induced increase of HIF-1α protein expression: Cl-IB-MECA 100 nM, U0126 10 and 30 μM, SB202190 1 and 10 μM
Protocol: Cell culture and hypoxia treatment: Cells were maintained in DMEM (A375), EMEM (NCTC 2544) or RPMI 1640 (U87MG, U2OS) medium containing 10% fetal calf serum, penicillin (100 U/ml), streptomycin (100 ug/ml), and L-glutamine (2 mM) at 37° C. in 5% CO2/95% air. Cells were passaged two or three times weekly at a ratio between 1:5 and 1:10. Hypoxic exposure was in BBL™ GasPak pouch™ System (Becton Dickinson) that reduce oxygen concentration of less than 2% within 2 hours of incubation at 35° C.
Cells were harvested and washed with ice-cold PBS containing 1 mM sodium orthovanadate, AEBSF 104 mM, aprotinin 0.08 mM, leupeptin 2 mM, bestatin 4 mM, pepstatin A 1.5 mM, E-64 1.4 mM. Cells were then lysed in Triton lysis buffer. The protein concentration was determined using BCA protein assay kit (Pierce). […] The gel was then electroblotted onto a nitrocellulose membrane. Membranes were blocked with 5% nonfat dry milk in PBS containing 0.1% Tween-20 and incubated with antibodies against HIF-1α (1:250 dilution) and HIF-1β (1:1000 dilution) in 5% nonfat dry milk in PBS/0.1% Tween-20 overnight at 4° C. Aliquots of total protein sample (50 ug) were analyzed using antibodies specific for phosphorylated (Thr183/Tyr185) or total p44/p42 MAPK (1:5000 dilution), phosphorylated (Thr180/Tyr182) or total p38 MAPK (1:1000 dilution) and for A3 receptor (1 µg/ml dilution). Filters were washed and incubated for 1 hour at room temperature with peroxidase-conjugated secondary antibodies against mouse and rabbit IgG (1:2000 dilution). […] The membranes were then stripped and reprobed with tubulin (1:250) to ensure equal protein loading.
U0126 was used at 10 and 30 uM as inhibitor of MEK-1 and MEK-2 to prevent p44 and p42 MAPK activation. SB202190 was used at 1 and 10 uM as inhibitor of p38 MAPK.
Densitometry analysis: The intensity of each band in immunoblot assay was quantified using molecular analyst/PC densitometry software (Bio-Rad). […] The data were presented as the mean±S.E., and analyzed by the Student's test.

[1] = test system: Human Colon Carcinoma HT29; test: MTT growth inhibitory assay, HT29; type: cell-based; conditions: for Enhancement Factor: HT29 cells, A3 antagonist at 0.5 μg/ml
Protocol: (§1) Interpretation of the EF is dependent upon the concentrations of A3 receptor antagonist tested. For example, when using very low concentrations of A3 receptor antagonist, any EF above 1.0 is synergistic if the A3 receptor antagonist concentration is below the threshold of cell growth inhibition.
(§2) The cells are sub-cultured twice a week.
(§3) Vinblastine sulfate salt was obtained from Sigma Chemical Co., (V1377). Irinotecan was diluted with culture medium. All other agents were dissolved in 100% DMSO at appropriate concentrations. The DMSO stock solutions were diluted 100-fold with growth medium so that the final DMSO concentration was 1%.

[2] = test system: Human Pancreatic Cancer Panc-1; test: MTT growth inhibitory assay, Panc-1; type: cell-based; conditions: Panc-1 cells, A3 antagonist at 0.5 μg/ml
Protocol: as §1, §2, §3

[3] = test system: Human Lung Carcinoma SKMES; test: MTT growth inhibitory assay, SKMES; type: cell-based; conditions: SKMES cells, A3 antagonist at 0.5 μg/ml
Protocol: as §1, §2, §3

Human Melanoma A375 = test: MTT growth inhibitory assay, A375; conditions: A375 cells
Protocol: An exemplary assay may comprise the following steps: Cells (1000-1500 cells/well) are seeded in a 96-well micro culture plate in a total volume of 100 μl/well. After overnight incubation in a humidified incubator at 37° C. with 5% CO2-95% air, chemotherapeutic drug solutions diluted with culture medium at various concentrations are added in the amount of 100 μl to each well. The plates are placed in a humidified incubator at 37° C. with 5% CO2-95% air for 7-10 days. The plates are then centrifuged briefly and 100 μl of the growth medium is removed. Cell cultures are incubated with 50 μl of MTT [3-(4,5-dimethylthiazol-2-yl)-2,5-diphenyl-tetrazolium bromide] reagent (1 mg/ml in Dulbecco's phosphate-buffered saline) for 4 hr at 37° C. The resultant purple formazan precipitate is solubilized with 200 μl of 0.04 N HCl in isopropanol. Absorbance is measured at a wavelength of 595 nm and at a reference wavelength of 655 nm using a Bio-Rad Model 3550 Microplate Reader. Preferably, all tests are run in duplicate for each dose level. […] The EZED50 computer program estimates the concentration of agent that inhibits cell growth by 50% as compared to the control cells. This is termed the IC50 and is determined by curve fitting test data using the following four logistic equation. [formula]
If testing concentrations are properly selected (i.e., no or little growth inhibition at low concentrations and complete inhibition at high concentrations), EZED50 program fits the data extremely well and estimates the IC50 value accurately. […] In these instances, the data could be re-analyzed by fixing the Amax value.
In this case, the IC50 could be estimated more accurately if both the Amax and Amin values are fixed. Although it may be feasible to estimate IC50 value by fixing Amax and/or Amax and Amin without repeating the experiment, the best way to determine the IC50 accurately is to decrease or increase the concentrations of the test agent and repeat the test.
Inhibitory assay testing is also used to determine enhanced therapeutic effects from combining A3 receptor antagonists with other tumor inhibiting agents. The inhibitory cell growth assays are run with and without selected concentrations of A3 receptor antagonists. An enhanced therapeutic effect is present when the IC50 of the tumor inhibiting agent is lower with the A3 receptor antagonist.
Quantitatively, the enhancement factor (EF) is calculated by dividing the IC50 value of the tumor inhibiting agent for a tumor cell line by the IC50 value of the agent with A3 receptor antagonist for the same cell line: [formula]
The cells are cultured in a T25 Falcon Tissue Culture flask in a humidified incubator at 37° C. with 5% CO2-95% air. The cells are sub-cultured twice a week.

P-gp = P-gp (Homo sapiens, UniProt P08183); type: cell-based; conditions: for % of Rh123 Negative Cells (cells expressing P-gp activity): HeL023 cells
Protocol: Rhodamine 123 Efflux Assay: 5×10^5 cells from each subline were loaded with 50 ng/ml of rhodamine 123 for 30 minutes at 37 C in medium. The cells were washed and resuspended in dye-staining agent free medium for 3 hours at 37 C. to allow rhodamine 123 efflux. The cells were then washed twice and the fluorescence of intracellular rhodamine 123 were analysed with Flow cytometer (residual fluorescence FRES). The fluorescence was compared with loaded cells maintained at 4 C. to prevent drug export (maximal fluorescence FMAX). […] Cells from each subline that were not being exposed to rhodamine 123 were used as negative controls.
Rhodamine 123 (Rh123) retention, a P-gp functional assay, was studied in all cell lines. This assay was performed by incubating cells with Rh123 and determining Rh123 accumulation by measuring its fluorescence. The maximum load of Rh123 (FMAX) was quantified at the end of treatment harvesting the cells and storing them at 4° C. to prevent any active Rh123 efflux. The P-gp drug efflux was allowed incubating Rh123-loaded cells in fresh new medium Rh123-free for 3 hours at 37° C. After this incubation, residual fluorescence (FRES) was measured and compared to FMAX.

A375 cells = test: Flow cytometry cell cycle (G2/M) and apoptosis (sub-G1) analysis, A375; type: cell-based, human; conditions: for reduction of apoptosis induced by paclitaxel: A375, paclitaxel 25 ng/ml, PD98059 20 μM, U0126 30 μM, SB203580 1 μM; for EC50: Homo sapiens
Protocol: Flow Cytometry Analysis: A375 and NCTC2544 adherent cells were trypsinized, mixed with floating cells, washed with PBS and permeabilised in 70% (vol/vol) ethanol/PBS solution at 4° C. for at least 24 hours. Jurkat, HeL023 and PBMC cells were centrifuged for 10 minutes at 1000×g. The cell pellet was then resuspended and permeabllised in 70% (vol/vol) ethanol/PBS solution at 4° C. for at least 24 hours. The cells were washed with PBS and the DNA was stained with a PBS solution, containing 20 μg/ml of propidium iodide and 100 μg/ml of RNAse, at room temperature for 30 minutes. Cells were analysed by FACScan (Becton-Dickinson) and the content of DNA was evaluated by the Cell-LISYS program (Becton-Dickinson). Cell distribution among cell cycle phases and apoptotic cells was evaluated as previously described (Secchiero et al., 2001). Briefly, the cell cycle distribution is shown as the percentage of cells containing 2n (G1 phase), 4n (G2 and M phases), 4n>x>2n. DNA amount (S phase) judged by propidium iodide staining. The apoptotic population is the percentage of cells with DNA content lower than 2n.
After 24 hours, cells were collected for flow cytometry analysis. PD 98059 was used at 20 uM as an inhibitor of MEK to prevent MEK-1 activation. […]
EC50 values were obtained by analysing G2/M accumulation dose response curve. ECMAX values were obtained by analysing sub-G1 accumulation dose response curve. Paclitaxel values have units of ng/ml.

[4] = administered at 100 mg/m^2; cited from earlier work

Chain of P-gp (P08183 whole entry): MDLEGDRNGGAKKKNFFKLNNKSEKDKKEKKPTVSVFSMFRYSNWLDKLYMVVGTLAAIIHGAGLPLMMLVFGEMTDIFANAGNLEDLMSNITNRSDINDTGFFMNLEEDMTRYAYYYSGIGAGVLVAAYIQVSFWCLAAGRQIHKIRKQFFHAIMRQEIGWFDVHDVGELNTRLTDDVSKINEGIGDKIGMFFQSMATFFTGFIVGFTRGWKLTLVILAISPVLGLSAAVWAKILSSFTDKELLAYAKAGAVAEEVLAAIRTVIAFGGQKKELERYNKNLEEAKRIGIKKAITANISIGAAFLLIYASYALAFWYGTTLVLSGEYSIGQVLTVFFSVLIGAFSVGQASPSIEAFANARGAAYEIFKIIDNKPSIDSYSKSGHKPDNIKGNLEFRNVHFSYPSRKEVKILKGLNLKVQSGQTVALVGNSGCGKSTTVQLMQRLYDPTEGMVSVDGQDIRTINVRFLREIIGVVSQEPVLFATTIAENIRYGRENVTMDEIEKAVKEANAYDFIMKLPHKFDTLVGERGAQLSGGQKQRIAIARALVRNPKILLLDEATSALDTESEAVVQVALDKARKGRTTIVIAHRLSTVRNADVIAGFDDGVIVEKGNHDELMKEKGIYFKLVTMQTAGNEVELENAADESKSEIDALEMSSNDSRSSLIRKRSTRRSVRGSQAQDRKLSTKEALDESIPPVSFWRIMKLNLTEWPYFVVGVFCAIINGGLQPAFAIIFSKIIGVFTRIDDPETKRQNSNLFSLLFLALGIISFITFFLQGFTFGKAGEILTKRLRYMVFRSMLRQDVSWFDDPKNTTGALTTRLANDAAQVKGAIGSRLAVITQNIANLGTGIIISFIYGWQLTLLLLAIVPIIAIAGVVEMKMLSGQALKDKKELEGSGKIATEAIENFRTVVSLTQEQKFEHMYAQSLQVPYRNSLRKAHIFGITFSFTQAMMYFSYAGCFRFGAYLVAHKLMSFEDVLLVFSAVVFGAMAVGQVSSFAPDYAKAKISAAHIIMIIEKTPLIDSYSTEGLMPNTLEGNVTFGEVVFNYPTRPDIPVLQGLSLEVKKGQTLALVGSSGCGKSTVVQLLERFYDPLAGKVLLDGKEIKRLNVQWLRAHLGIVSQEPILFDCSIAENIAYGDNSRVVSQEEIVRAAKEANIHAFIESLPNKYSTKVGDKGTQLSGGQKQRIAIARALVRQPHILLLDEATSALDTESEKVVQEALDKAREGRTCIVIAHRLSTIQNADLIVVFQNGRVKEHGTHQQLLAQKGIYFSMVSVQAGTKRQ

Cn1cc2c(nc(NC(=O)Nc3ccncc3)n3nc(-c4ccco4)nc23)n1 [MRE 3005F20]
effect on Cl-IB-MECA-induced HIF-1α modulation (HIF-1α; hypoxia, antagonist 10 and 100 nM, Cl-IB-MECA 10 and 100 nM): able to abrogate the effect of Cl-IB-MECA

Nc1nc2c(cnn2CCc2ccccc2)c2nc(-c3ccco3)nn12 [SCH 58261, 5-amino-7-(2-phenylethyl)-2-(2-furyl)-pyrazolo[4,3-e]-1,2,4-triazolo[1,5-c]pyrimidine]
effect on adenosine-induced HIF-1α protein expression (HIF-1α): not able to prevent

CCN(CC)c1ccc(NC(=O)Nc2nc3nn(C)cc3c3nc(-c4ccco4)nn23)cc1.Cl [IL-10, N-1-(4-diethylamino-phenyl)-N′—S-[8-methyl-2-(2-furyl)-pyrazolo[4,3-e]1,2,4-triazolo[1,5-c]pyrimidine]-urea]
Enhancement Factor ([1]; enhancement of docetaxel IC50): 5.5 | Enhancement Factor ([1]; enhancement of doxorubicin IC50): 1.5 | Enhancement Factor ([1]; enhancement of irinotecan IC50): 1.2 | Enhancement Factor ([1]; enhancement of paclitaxel IC50): 2.5 | Enhancement Factor ([2]; enhancement of docetaxel IC50): 1.4 | Enhancement Factor ([2]; enhancement of paclitaxel IC50): 1.7 | Enhancement Factor ([3]; enhancement of docetaxel IC50): 2.8 | Enhancement Factor ([3]; enhancement of irinotecan HCL IC50): 1.7 | Enhancement Factor ([3]; enhancement of paclitaxel IC50): 2.8 | Enhancement Factor ([3]; enhancement of vinblastine IC50): 1.4 | Enhancement Factor (Human Melanoma A375; enhancement of docetaxel IC50, A3 antagonist at 0.5 μg/ml): 8.4 | Enhancement Factor (Human Melanoma A375; enhancement of docetaxel IC50, A3 antagonist at 5 μg/ml): 2.9 | Enhancement Factor (Human Melanoma A375; enhancement of paclitaxel IC50, A3 antagonist at 0.5 μg/ml): 3.7 | Enhancement Factor (Human Melanoma A375; enhancement of paclitaxel IC50, A3 antagonist at 5 μg/ml): 8.8 and 9.2 | % of Rh123 Negative Cells (cells expressing P-gp activity) (P-gp; 10 μM): 0.4 ± 0.2%

N#CC(=C(/N)Sc1ccccc1N)/C(C#N)=C(\N)Sc1ccccc1N [Compound U0126]
effect on Cl-IB-MECA-induced increase of HIF-1α protein expression (HIF-1α): able to inhibit | reduction of apoptosis induced by paclitaxel (A375 cells): 73±10% | effect on MRE 3008F20 blockade of P-gp (P-gp; A375, U0126 30 μM 30 minutes, then MRE3008F20 10 μM): failed to prevent MRE 3008F20 blockade of P-gp

CC(=O)O[C@@]12CO[C@@H]1C[C@H](O)[C@@]1(C)C(=O)[C@H](O)C3=C(C)[C@@H](OC(=O)[C@H](O)[C@@H](NC(=O)OC(C)(C)C)c4ccccc4)C[C@@](O)([C@@H](OC(=O)c4ccccc4)[C@H]21)C3(C)C [docetaxel]
acute hypersensitivity reaction, % of patients [4]: 13% | severe hypersensitivity reaction, % of patients [4]: 1.2%

C[S+]([O-])c1ccc(-c2nc(-c3ccncc3)c(-c3ccc(F)cc3)[nH]2)cc1 (stereo not shown) [SB203580]
reduction of apoptosis induced by paclitaxel (A375 cells): did not exert any effect

COc1cccc2c1C(=O)c1c(O)c3c(c(O)c1C2=O)C[C@@](O)(C(=O)CO)C[C@@H]3O[C@H]1C[C@H](N)[C@H](O)[C@H](C)O1 [doxorubicin, reference compound]
fold more refractory, HT29 vs A375 cell line (IC50) [1]: approximately 30 fold

CCCn1c(=O)c2[nH]c(-c3cc(OCC(=O)Nc4ccc5c(c4)OCO5)nn3C)nc2n(CCC)c1=O [MRE 2029F20]
effect on adenosine-induced HIF-1α protein expression (HIF-1α): not able to prevent

Oc1ccc(-c2nc(-c3ccncc3)c(-c3ccc(F)cc3)[nH]2)cc1 [SB202190]
effect on Cl-IB-MECA-induced increase of HIF-1α protein expression (HIF-1α): able to inhibit

CC[C@]1(O)C[C@@H]2CN(CCc3c([nH]c4ccccc34)[C@@](C(=O)OC)(c3cc4c(cc3OC)N(C)[C@H]3[C@@](O)(C(N)=O)[C@H](O)[C@]5(CC)C=CCN6CC[C@]43[C@@H]65)C2)C1 [vindesine]
EC50 (A375 cells; A-375, 24 h, read-out: EC50 (G2/M accumulation)): 1.9 ± 0.2 nM

O=C1c2c(O)ccc(O)c2C(=O)c2c(NCCNCCO)ccc(NCCNCCO)c21 [mitoxantrone, reference compound]
fold more refractory, HT29 vs A375 cell line (IC50) [1]: approximately 30 fold

Nc1nc2ccc(Cl)cc2c2nc(-c3ccco3)nn12 [CGS 15943, 5-amino-9-chloro-2-(furyl)1,2,4-triazolo[1,5-c]quinazoline, reference compound]
EC50 (A375 cells; A-375, read-out: SEC50): 12600 ± 1410 nM | % of Rh123 Negative Cells (cells expressing P-gp activity) (P-gp; 70 μM): 87.1 ± 1.0%

CCCn1cc2c(nc(NC(=O)Nc3ccccc3)n3nc(-c4ccco4)nc23)n1 [MRE 3055F20, 5-N-(4-phenylcarbamoyl)amino-8-propyl-2(2furyl)-pyrazolo[4,3e]-1,2,4-triazolo-[1,5c]pyrimidine]
EC50 (A375 cells; A-375, read-out: SEC50): 310 ± 30 nM | % of Rh123 Negative Cells (cells expressing P-gp activity) (P-gp; 10 μM): 0.8 ± 0.2%

Cc1ccc(NC(=O)Nc2nc3nn(C)cc3c3nc(-c4ccco4)nn23)cc1 [MRE 3046F20, 5-N-(4-methylphenyl-carbamoyl)amino-8-methyl-2(2-furyl)-pyrazolo-[4,3e]-1,2,4-triazolo[1,5-c]pyrimidine]
EC50 (A375 cells; A-375, read-out: SEC50): 570 ± 60 nM | % of Rh123 Negative Cells (cells expressing P-gp activity) (P-gp; 10 μM): 22.0 ± 1.0%

From patent publication US20060204502A1 (priority 2004, published 2006)
